Results on seven compounds are retold here after US20220323444A1, “Methods of Treating Advanced Prostate Cancer” (The Medical College of Wisconsin, Inc., priority 2019, published 2022).

For series [1], the system named is FL-AR, AR-V7 and AR-V9 mRNA and AR protein levels in PC cells. Kind of series: AR mRNA (qRT-PCR) and AR / pYStat5 protein (immunoblot) in PC cells treated with Jak2 inhibitors. Format: cell-based. To be noted: for FL and AR-V AR mRNA and protein levels: CWR22Rv1 CRPC cell line, FIGS. 6A-6B. As for the experimental part: Jak2 was inhibited for 3 days by Jak2 inhibitors AZD1480, gandotinib, pacritinib, baricitinib or fedratinib at indicated concentrations followed by RNA extraction and quantification of FL-AR, AR-V7 and AR-V9 mRNA levels by qRT-PCR.
Immunoblot analysis of AR expression in PC cells treated with increasing concentrations of Jak2 inhibitors AZD1480, gandotinib, pacritinib or baricitinib for 72 h.
(§1) We tested whether Stat5 regulation of AR mRNA and protein levels provides an opportunity to control AR levels pharmacologically by inhibition of Jak2 signaling. […] Finally, to evaluate the effect of PAC and FED on PC cell viability, CWR22Rv1 cells were treated with increasing concentrations of PAC or FED for 3 days.

The subject of a further series is CWR22Rv1 PC cells. Kind of series: Death / viability of CWR22Rv1 PC cells treated with Jak2 inhibitors. Format: cell-based. To be noted: for IC50: 72 h, CWR22Rv1, at 3 days, read-out: IC50, induction of death of CWR22Rv1 PC cells. As for the experimental part:
as §1

Series [2] deals with Stat5 and Jak2 phosphorylation in PC cells. Kind of series: ENZ-induced Jak2-Stat5 phosphorylation in PC cells (IP and WB). To be noted: CWR22Pc, LAPC4 and CWR22Pc-ENZ-R cells; AZD1480 800 nM, 12 days. It is filed as cell-based.
Experimental: CWR22Pc and LAPC4 PC cells were treated with ENZ or vehicle for the indicated periods of time. Levels of active Stat5 were determined by immunoprecipitation (IP) of Stat5 followed by immunoblotting (WB) for pStat5a/b and total Stat5. Whole cell lysates (WCL) were immunoblotted for pStat3, Stat3 and Actin. […] CWR22Pc and LAPC4 cells were transduced with lentiviral AR shRNA (shAR) or lenti-shCtrl for 3 days followed by treatment with ENZ or vehicle for 7 days at the indicated concentrations.
PC cells were cultured with ENZ or Jak2 inhibitor AZD1480 (800 nM) alone or in combination for 12 days. Expression levels of active Stat5 were determined by IP of Stat5 followed by WB for pStat5a/b and total Stat5. WCLs were immunoblotted for pStat3, Stat3 and Actin. […] Jak2 was suppressed by lentiviral Jak2 shRNA vs. shCtrl in PC cells for 3 days followed by ENZ or vehicle for 7 days. Active Stat5, Stat5 and Jak2 levels were evaluated by IP and WB, as depicted. […] PC cells were treated with ENZ or vehicle for 6 h at the indicated concentrations. Control cells were stimulated with prolactin (Prl) (10 nM) for 20 min as control for cytokine-induced Jak2 phosphorylation. […] Alternatively, PC cells were treated with ENZ or vehicle for 12 days or stimulated with Prl for 20 min at the indicated concentrations. Stat5 and Jak2 were IP:ed and WB:ed for pStat5, pJak2, tot Stat5, and total Jak2.
To investigate whether AR is required for ENZ induction of Stat5 signaling, we inhibited AR expression in CWR22Pc and LAPC4 cells by genetic knockdown using lentiviral expression of AR shRNA (FIG. 9C).
To further assess the involvement of Jak2 in ENZ-induced Stat5 activation, Jak2 was genetically knocked down by lentiviral expression of Jak2 shRNA in CWR22Pc and LAPC4 cells for 3 days followed by ENZ treatment for 7 days.
Series [3] relates to AR protein levels in CWR22PC cells. Kind of series: Time-course of AR protein levels in CWR22PC cells. It is filed as cell-based, human. To be noted: timepoints 12-72 h.
The subject of series [4] is androgen-responsive PC cell viability. Kind of series: PC cell viability time-course versus androgen withdrawal (crystal violet staining and cell counting). It is filed as cell-based. From the text:
Crystal violet staining and cell counting were used to compare PC viability over a time-course of 2-10 days between cells treated with ADT and control (+ADT), cells treated with PAC and control (+DMSO), cells treated with FED and control (+DMSO), cells treated with Jak2 knockdown (shJak2) and control (shCtrl), and cells treated with Stat5 knockdown (shStat5) and control (shCtrl).
Next, we compared the effect of androgen deprivation therapy (ADT) carried out by androgen withdrawal, which is the standard therapy used to treat advanced prostate, to the effect of PAC and FED on androgen-responsive PC cell viability over a time-course of 2-10 days using crystal violet staining and cell counting. Based on this analysis, ADT decreased cell viability by 30% compared to control (+DHT), PAC decreased cell viability by 82% after 4 days of treatment and by 96% after 6 days of treatment compared to the control (+DMSO), FED decreased cell viability by 87% after 4 days of treatment and by 98% after 6 days of treatment compared to control (+DMSO), Jak2 knockdown (shJak2) decreased cell viability by 92% after 4 days of lentivirus infection and by 95% after 6 days of lentivirus infection compared to control (shCtrl), and Stat5 knockdown (shStat5) decreased cell viability by 96% after 4 days of lentivirus infection and by 98% after 6 days of lentivirus infection compared to control (shCtrl) (FIG. 25).

For series [5], the system named is CWR22PC PC cells that survive treatment with ENZ. Kind of series: Viability of CWR22PC cells surviving ENZ treatment. It is filed as cell-based, human. To be noted: ENZ 5 days, then 300 nM for 4 days. The protocol:
The PC cells were treated with ENZ (or vehicle) for 5 days, and were then treated with ENZ, vehicle, PAC, or FED for 4 days.
The effect of PAC and FED in blocking the growth of PC cells that survive treatment with the anti-androgen enzalutamide (ENZ) was tested in CWR22PC PC cells. The PC cells were treated in culture with ENZ (or vehicle) for 5 days, and were then treated with ENZ (40 μM), vehicle, PAC (300, 600 or 1200 nM), or FED (300, 600 or 1200 nM) for 4 days. […] Thus, PAC and FED can be used to reduce ENZ resistant PC cell growth.

In series [6] the test system is AR mRNA and protein in PC cells that survive ENZ treatment. Description: AR expression in CWR22PC cells surviving ENZ treatment. Format: cell-based, human. To be noted: ENZ 5 days, then PAC or FED for 4 days.
In series [7] the test system is AR-FL, AR-V7 and AR-V9 mRNA expression. Description: Low concentrations of FED and PAC on AR mRNA expression. Format: cell-based. To be noted: 0-0.6 μM. The protocol:
As a preliminary study, we tested whether low contrations of FED and PAC (0, 0.01875, 0.0375, 0.075, 0.15, 0.3, 0.6 μM) reduce mRNA expression of full-length (AR-FL) and variant (AR-V7 and AR-V9) forms of AR.

Series [8] deals with AR-FL, AR-V7 and AR-V9 expression and Stat5 phosphorylation in PC cell lines. Kind of series: Clinical grade versus research grade pacritinib: Stat5 phosphorylation and AR expression in PC cell lines. It is filed as cell-based. As for the experimental part: Control cells were treated with […] (ShCtrl).
The ability of clinical grade pacritinib (CTI Biopharma) to inhibit Stat5 phosphorylation and suppress AR expression in prostate cancer cells in vitro was compared to that of research grade pacritinib (MedChem Express (MCE)) and to cells in which Jak2 was knocked down using lentivirus expressing Jak2-shRNA (shJak2). […] Thus, clinical grade pacritinib induces the same effects as research grade pacrtinib, suppressing AR levels and reducing PC cell viability.

Series [9] has as its system AR mRNA and protein expression in CWR22PC cells. Kind of series: PAC and FED on AR expression after Stat5-shRNA in CWR22PC cells. Format: cell-based, human. To be noted: lentiviral Stat5-shRNA. From the text:
We tested whether PAC and FED are able to further reduce AR mRNA and/or protein expression following genetic suppression of AR gene expression via lentiviral expression of Stat5-shRNA in CWR22PC cells.

In series [10] the test system is FL-AR and AR-V protein levels in CWR22Rv1 cells. Kind of series: Pilot experiment: FED on AR protein levels in CWR22Rv1 cells (IB). To be noted: CWR22Rv1, 4 days. Format: cell-based. The text has this:
Jak2 was inhibited for 4 days by fedratinib (FED) at indicated concentrations followed by quantification of FL-AR, AR-V7 and AR-V9 protein levels by IB.
We conducted a pilot experiment to test the efficacy of FED in suppressing AR levels in PC cells (FIG. 16).

The test system of series [11] is AR mRNA and protein levels in CWR22Pc tumors. Description: AR levels in CWR22Pc xenograft tumors in nude mice. To be noted: 40 mg/kg i.p. daily for 40 days. It is filed as in vivo. As for the experimental part: FIG. 4A. Pharmacological Stat5 inhibition decreases AR protein and mRNA levels in PC xenograft tumors in nude mice. Nuclear AR and Stat5 levels were detected by immunostaining of paraffin-embedded tissue sections of CWR22Pc tumors from mice treated with IST5-002 (IST5) (40 mg/kg; i.p.) for 40 days. Also, AR mRNA levels were evaluated by q-RT-PCR. FIG. 4B. Pharmacological inhibition of Stat5 by IST5-002 or pacritinib suppress AR mRNA levels in patient-derived PCs cultured ex vivo. Clinical PCs (n=4) obtained from prostatectomies were cultured for 7 days ex vivo in 3D tumor explant cultures in the presence of Stat5 inhibitor IST5-002 (12.5 μM) or PAC (1 μM) vs. vehicle, and AR mRNA levels were analyzed by qRT-PCR.
To evaluate whether Stat5 regulation of AR mRNA and protein levels is evident in an in vivo setting where PC cells were grown as xenograft tumors in mice, CWR22Pc cells (1.5×10^7) were inoculated subcutaneously into flanks of nude mice (one tumor/mouse). After tumors reached approximately 100 mm^3 in size (12 d), mice were treated daily for 40 days by intraperitoneal injection with IST5-002 (40 mg/kg body weight) or vehicle (0.3% hydroxypropyl cellulose/H2O) (5 mice/group). AR mRNA and protein levels were evaluated by q-RT-PCR(47) and by immunohistochemistry, as previously described(18, 45, 46, 48, 49).

Regarding `CCS(=O)(=O)N1CC(CC#N)(n2cc(-c3ncnc4[nH]ccc34)cn2)C1` [baricitinib, 2-[1-Ethylsulfonyl-3-[4-(7H-pyrrolo[2,3-d]pyrimidin-4-yl)pyrazol-1-yl]azetidin-3-yl]acetonitrile], the “FL and AR-V AR mRNA and protein levels” value in series [1] is listed as “dose-dependent reduction”.
For `Cc1cc(Nc2cc(CN3CCOCC3)c3nc(C)c(Cc4ccc(Cl)cc4F)n3n2)n[nH]1` [gandotinib, 3-(4-Chloro-2-fluorobenzyl)-2-methyl-N-(5-methyl-1H-pyrazol-3-yl)-8-(morpholinomethyl)imidazo[1,2-b]pyridazin-6-amine], the “FL and AR-V AR mRNA and protein levels” value in series [1] is listed as “dose-dependent reduction”. In addition, the IC50 in the series on CWR22Rv1 PC cells is 300 nM.
In the case of `Cc1cc(Nc2nc(N[C@@H](C)c3ncc(F)cn3)ncc2Cl)n[nH]1` [AZD1480, 5-chloro-2-N-[(1S)-1-(5-fluoropyrimidin-2-yl)ethyl]-4-N-(5-methyl-1H-pyrazol-3-yl)pyrimidine-2,4-diamine], the “ENZ-induced Stat5 phosphorylation” value in series [2] was “blocked ENZ-induced Stat5 phosphorylation”. For the same compound, the “FL and AR-V AR mRNA and protein levels” value in [1] is recorded as “dose-dependent reduction”.
`C1=C/COCc2cc(ccc2OCCN2CCCC2)Nc2nccc(n2)-c2cccc(c2)COC/1` [pacritinib, (16E)-11-[2-(1-Pyrrolidinyl)ethoxy]-14,19-dioxa-5,7,26-triazatetracyclo[19.3.1.12,6.18,12]heptacosa-1(25),2(26),3,5,8,10,12(27),16,21,23-decaene]: the “time after treatment at which AR protein levels start to decrease” value in series [3] stood at 48 h. In addition, the results for the “decrease in cell viability compared to control (+DMSO)” value in [4] (after 4 days of treatment) and in series [4] (after 6 days of treatment) were 82% and 96%, respectively. In addition, in series [5], the “growth / viability of PC cells surviving ENZ treatment” value is “able to block the growth PC cells surviving ENZ treatment with very high efficacy”. In addition, in [1], the “FL and AR-V AR mRNA and protein levels” value is “dose-dependent reduction”. Further, in the series with CWR22Rv1 PC cells, the IC50 stood at 300 nM. Moreover, in series [6], the “AR expression at mRNA and protein level in PC cells that survive ENZ treatment” value was “reduces expression of AR at both the mRNA and protein level”. In series [7], the “mRNA expression of AR-FL, AR-V7 and AR-V9 versus concentration” value was “AR expression levels decrease with increased concentrations”. For the same compound, the “efficacy in suppressing AR protein expression relative to research grade pacritinib” value in series [8] (CWR22PC and CWR22Rv1, FIG. 18) is “has higher efficacy than research grade pacritinib (MCE)”. Also, the “phosphorylation of Stat5” value in series [8] (CWR22Pc, LAPC4) is “decreases phosphorylation of Stat5”. In [8] (CWR22Rv1 and CWR22PC), the “AR expression at the protein level” value is reported as “caused a reduction in AR expression at the protein level”. Besides, the “mRNA expression of AR-FL, AR-V7 and AR-V9” value in series [8] (CWR22Rv1 and CWR22PC) is “reduced mRNA expression levels of both full-length (AR-FL) and variant (AR-V7 and AR-V9) forms of AR”. In addition, in series [8] (CWR22Rv1 and CWR22PC, FIG. 17), the “efficacy in suppressing AR mRNA expression relative to research grade pacritinib” value was “has higher efficacy than research grade pacritinib (MCE)”. Besides, in [9], the “further reduction of AR mRNA/protein expression after Stat5-shRNA” value is “no further decrease in AR expression levels”.
Turning to `Cc1cnc(Nc2ccc(OCCN3CCCC3)cc2)nc1Nc1cccc(S(=O)(=O)NC(C)(C)C)c1` [fedratinib, N-tert-Butyl-3-{5-methyl-2-[4-(2-pyrrolidin-1-yl-ethoxy)-phenylamino]-pyrimidin-4-ylamino}-benzenesulfonamide], the “decrease in cell viability compared to control (+DMSO)” value in series [4] (after 4 days of treatment) is on record as 87%; in series [4] (after 6 days of treatment), 98%. In series [5], the “growth / viability of PC cells surviving ENZ treatment” value is “able to block the growth PC cells surviving ENZ treatment with very high efficacy”. Also, the “FL and AR-V AR mRNA and protein levels” value in series [1] is “dose-dependent reduction”. In addition, in the series with CWR22Rv1 PC cells, the IC50 is 300 nM. Further, the “AR expression at mRNA and protein level in PC cells that survive ENZ treatment” value in [6] is “reduces expression of AR at both the mRNA and protein level”. The “FL-AR and AR-V protein levels” value in [10] is “depletes FL-AR and AR-V protein levels almost entirely”. Further, the “mRNA expression of AR-FL, AR-V7 and AR-V9 versus concentration” value in series [7] is “AR expression levels decrease with increased concentrations”. In series [9], the “further reduction of AR mRNA/protein expression after Stat5-shRNA” value is “no further decrease in AR expression levels”.
For `N#CCNC(=O)c1ccc(-c2ccnc(Nc3ccc(N4CCOCC4)cc3)n2)cc1` [momelotinib], the “AR protein levels in PC cells” value in series [1] (72 h, immunoblot, FIG. 6B) is reported as “did not result in the suppression of AR protein levels”. Besides, in series [1] (3 days, qRT-PCR, FIG. 6A), the “AR mRNA levels in PC cells” value is given as “does not suppress AR expression in PC cells”. For the same compound, the “FL and AR-V AR mRNA and protein levels” value in [1] is on record as “dose-dependent reduction”. The Stat5 phosphorylation result in [1] (prostate cancer cells, FIG. 6B) is listed as “does not inhibit Stat5 phosphorylation”. In the series with CWR22Rv1 PC cells (FIG. 7D, 7E), the “induction of death of PC cells” value is listed as “does not provide the same effect of beneficial induction of cell death”.
Turning to `O=P(O)(O)OC[C@H]1O[C@@H](n2cnc3c(NCc4ccccc4)ncnc32)[C@H](O)[C@@H]1O` [IST5-002], the “AR mRNA and protein expression in PC tumors in vivo” value in series [11] is “marked decrease in AR mRNA and protein expression”.
